Measured values reported in patent US20110212999A1, “TRIAZOLE DERIVATIVES AND THEIR USE AS NICOTINIC ACETYLCHOLINE RECEPTOR MODULATORS” (NEUROSEARCH A/S, priority 2008, published 2011).

Experiments:
[1] = target: T1, human nicotinic acetylcholine receptor subtype a4b2 (Homo sapiens, UniProt P17787+P43681); test: FLIPR nAChR a4b2 positive allosteric modulator activity (shift of nicotine concentration-response); type: cell-based; conditions: nicotine +/- test compound, HEK-293 cells stably expressing hα4β2
T1 construct: expressed in transfected cells; host or cells: HEK-293
Procedure: Characterization of hα4β2 positive allosteric modulators using FLIPR
The modulator activity is determined as a fluorescence-based assay using a Fluorometric Imaging Plate Reader (FLIPR) as described below in more detail.
Full concentration-response curves of nicotine +/− test compound are generated and delta pEC50 values are calculated based on EC50 values for nicotine +/− test compound. EC50 values (Effective Concentration 50%) represent the concentration of the nicotine, at which the nicotine-induced response is 50% of the maximal nicotine-induced response.
Preferred compounds of the invention show an activity determined as delta pEC50 values above 1 in the presence of 10 μM of the test compound compared to nicotine alone.

T1 sequence (P43681 29-627 limits assumed): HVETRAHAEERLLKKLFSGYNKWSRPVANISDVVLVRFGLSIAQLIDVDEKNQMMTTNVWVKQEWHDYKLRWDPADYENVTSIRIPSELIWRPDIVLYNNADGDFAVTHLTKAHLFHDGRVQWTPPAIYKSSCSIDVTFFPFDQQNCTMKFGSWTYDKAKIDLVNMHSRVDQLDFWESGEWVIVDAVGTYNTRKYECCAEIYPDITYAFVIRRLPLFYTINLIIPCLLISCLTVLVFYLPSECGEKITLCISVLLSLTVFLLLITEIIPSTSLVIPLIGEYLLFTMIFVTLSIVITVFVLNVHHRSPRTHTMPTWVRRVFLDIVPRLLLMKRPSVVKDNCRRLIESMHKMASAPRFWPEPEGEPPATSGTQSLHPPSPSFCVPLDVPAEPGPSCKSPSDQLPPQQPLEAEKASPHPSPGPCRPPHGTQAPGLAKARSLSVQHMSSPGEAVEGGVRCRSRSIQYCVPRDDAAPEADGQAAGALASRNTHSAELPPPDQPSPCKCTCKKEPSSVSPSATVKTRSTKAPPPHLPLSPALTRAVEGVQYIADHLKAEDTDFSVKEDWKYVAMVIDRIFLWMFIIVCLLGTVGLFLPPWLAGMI
T1 sequence (P17787 26-502): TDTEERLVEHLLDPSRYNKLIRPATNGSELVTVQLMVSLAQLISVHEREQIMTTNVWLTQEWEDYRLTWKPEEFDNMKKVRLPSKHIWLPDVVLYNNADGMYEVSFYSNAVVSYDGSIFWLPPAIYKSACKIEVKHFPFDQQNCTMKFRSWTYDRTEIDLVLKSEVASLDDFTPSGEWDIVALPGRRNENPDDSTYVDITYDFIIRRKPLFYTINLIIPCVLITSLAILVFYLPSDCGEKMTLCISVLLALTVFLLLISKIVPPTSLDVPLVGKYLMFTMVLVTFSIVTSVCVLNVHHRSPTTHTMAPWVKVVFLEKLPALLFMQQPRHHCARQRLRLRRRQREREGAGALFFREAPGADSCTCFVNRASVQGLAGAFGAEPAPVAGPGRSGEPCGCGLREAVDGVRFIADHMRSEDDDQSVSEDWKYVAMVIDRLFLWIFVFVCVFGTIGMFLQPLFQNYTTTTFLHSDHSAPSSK

SMILES | melting point | Delta pEC50 [1]
COc1ccc(-c2cn(-c3cccnc3)nn2)cn1 [Compound 1N, 2-Methoxy-5-(1-pyridin-3-yl-1H-[1,2,3]triazol-4-yl)-pyridine] | 205.6 to 206.9 °C | 
Fc1cccc(-n2cc(-c3cccnc3)nn2)c1 [Compound 1R, 3-[1-(3-Fluoro-phenyl)-1H-[1,2,3]triazol-4-yl]-pyridine] | 156.3 to 158.2 °C | 
N#Cc1cccc(-n2cc(-c3cccnc3)nn2)c1 [Compound 1, 3-(4-Pyridin-3-yl-[1,2,3]triazol-1-yl)-benzonitrile] |  | 1.6
Fc1cncc(-n2cc(-c3cccnc3)nn2)c1 [Compound 1O, 3-Fluoro-5-(4-pyridin-3-yl-[1,2,3]triazol-1-yl)-pyridine] | 190.6 to 191.7 °C | 
N#Cc1cccc(-n2cc(-c3ccc(Cl)nc3)nn2)c1 [Compound 1H, 3-[4-(6-Chloro-pyridin-3-yl)-[1,2,3]triazol-1-yl]-benzonitrile] | 219.3 to 220 °C | 
Fc1cccc(Cl)c1-c1cn(-c2cccnc2)nn1 [Compound 1E, 3-[4-(2-Chloro-6-fluoro-phenyl)-[1,2,3]triazol-1-yl]-pyridine] | 94 to 95.2 °C | 
N#Cc1ccc(-n2cc(-c3cccnc3)nn2)o1 [Compound 2, 5-(4-pyridin-3-yl-[1,2,3]triazol-1-yl)-furan-2-carbonitrile] |  | 1.2
Brc1cncc(-n2cc(-c3cccnc3)nn2)c1 [Compound 1Q, 3-Bromo-5-(4-pyridin-3-yl-[1,2,3]triazol-1-yl)-pyridine] | 226.2 to 227.8 °C | 
[C-]#[N+]c1cccc(-c2cn(-c3ccc(Cl)nc3)nn2)c1 [Compound 1G, 2-Chloro-5-[4-(3-isocyano-phenyl)-[1,2,3]triazol-1-yl]-pyridine] | 202.2 to 203.6 °C | 
Fc1cncc(-c2cn(-c3cccnc3)nn2)c1 [Compound 1L, 3-Fluoro-5-(1-pyridin-3-yl-1H-[1,2,3]triazol-4-yl)-pyridine] | 190.2 to 191.6 °C | 
Fc1ccc(-n2cc(-c3cccnc3)nn2)cc1 [Compound 1S, 3-[1-(4-Fluoro-phenyl)-1H-[1,2,3]triazol-4-yl]-pyridine] | 179.9 to 190.9 °C | 
Fc1cccc(Cl)c1-n1cc(-c2cccnc2)nn1 [Compound 1I, 3-[1-(2-Chloro-6-fluoro-phenyl)-1H-[1,2,3]triazol-4-yl]-pyridine] | 94.5 to 97.1 °C | 
Fc1ccc(-n2cc(-c3cccnc3)nn2)cn1 [Compound 1P, 2-Fluoro-5-(4-pyridin-3-yl-[1,2,3]triazol-1-yl)-pyridine] | 221.3 to 222.6 °C | 
N#Cc1cccc(-n2cc(-c3cccnc3Cl)nn2)c1 [Compound 1J, 3-[4-(2-Chloro-pyridin-3-yl)-[1,2,3]triazol-1-yl]-benzonitrile] | 181 to 182.6 °C | 
Fc1ccc(-c2cn(-c3cccnc3)nn2)cn1 [Compound 1M, 2-Fluoro-5-(1-pyridin-3-yl-1H-[1,2,3]triazol-4-yl)-pyridine] | 187 to 188.7 °C | 
[C-]#[N+]c1cccc(-c2cn(-c3cccnc3Cl)nn2)c1 [Compound 1K, 2-Chloro-3-[4-(3-isocyano-phenyl)-[1,2,3]triazol-1-yl]-pyridine] | 184 to 185 °C | 
c1cncc(-c2cn(-c3cccnc3)nn2)c1 [Compound 1B, 3-(1-Pyridin-3-yl-1H-[1,2,3]triazol-4-yl)-pyridine] | 217 to 219 °C | 
